# Experimental data taken from patent publication US20250064886A1, “CARDIOVASCULAR AND CEREBROVASCULAR DRUG AND USE THEREOF” (HANGZHOU ADAMERCK PHARMLABS INC., priority 2021, published 2025).
# Values joined by “and” are separate entries in the source; they are usually repeats but may differ in a detail not shown here. Equal entries are not always repeated. Marks after values point to notes of the source that are not given here.
# How the values were obtained:
# [1] = system: lipid ROS levels in Erastin-induced nerve cells; assay: Lipid ROS levels (C11-BODIPY probe) in Erastin-induced nerve cells (Example 8); assay type: cell-based, rat; conditions: Erastin 50 μM
# Method: (§1) Experimental method: Primary neuron cells were incubated in a medium containing Erastin (final concentration of 50 μM) for 24 hours, and then incubated in a medium containing different concentrations of the test drug and Erastin (final concentration of 50 μM) for another 24 hours. After incubation, Real time PCR was used to detect mRNA expression of GPX4 in each group of cells, CCK8 assay was used to detect cell viability in each group of cells, C11-BODIPY probe method was used to detect intracellular lipid ROS levels in each group of cells, and PGSK probe method was used to detect iron content in cells.
# (§2) The experimental data were expressed in means±SD, and statistical differences between groups were determined using one-way ANOVA and Tukey's test, with p-values less than 0.05 considered significant.
# After incubation, the C11-BODIPY probe method was used to detect the lipid ROS levels in each group of cells. The results were presented as Mean±SD. Compared with the control group, ***p<0.0001; compared with the model group, #p<0.05, ##p<0.01.
# [2] = system: iron content in Erastin-induced neuronal cells; assay: Iron content (PGSK probe) in Erastin-induced neuronal cells (Example 8); assay type: cell-based, rat; conditions: Erastin 50 μM
# Method: as §1, §2
# After incubation, the PGSK probe method was used to detect the intracellular iron content. The results were presented as Mean±SD. Compared with the control group, ***p<0.0001; Compared with the model group, #p<0.05, ##p<0.01.
# [3] = system: vascular endothelial injury induced thrombosis model in zebrafish; assay: Preventative effect on vascular endothelial injury induced thrombosis, ponatinib zebrafish model (Example 1); assay type: in vivo; conditions: 4.00 ng/tail injected
# Method: Experimental method: 420 tails of 5 dpf wild type AB strain zebrafish were randomly selected and placed in a six-well plate, with 30 fish per well (experimental group). The fish were injected with compound (1), compound (2), compound (3), compound (4), compound (5), compound (6), compound (7), compound (8), compound (9), compound (10), and compound (11) (structural formula shown in Table 1) at a dose of 4.00 ng/tail, with positive control drug acetylsalicylic acid being administered by dissolving it in water at a concentration of 30.0 µg/mL. Normal control group (i.e. zebrafish treated with standard diluted water) and model control group were set up, with a capacity of 3 mL per well (experimental group). Except for normal control group, the remaining experimental groups were all given Punatinib by dissolving it in water to induce vascular endothelial injury induced thrombosis model in zebrafish. The zebrafish were stained with o-dianisidine after co-treatment with ponatinib and samples for a period of time under incubation conditions at 28° C.
# After staining, 10 zebrafish in each group were randomly selected and photographed under the microscope, and the intensity of cardiac erythrocyte staining in zebrafish was analyzed using NIS-Elements D 3.20 advanced image-processing software, and the samples were evaluated for the preventative effect on vascular endothelial injury induced thrombosis by the statistical results of cardiac erythrocyte staining intensity.
# The preventative effect on thrombosis is calculated as follows: […]
# Statistical analysis was performed using SPSS software, and p<0.05 indicates significant differences
# GPX4 mRNA = GPX4 mRNA expression (real time PCR) in Erastin-induced neuronal cells (Example 8); assay type: cell-based, rat; conditions: Erastin 50 μM
# Method: as §1, §2
# After incubation, real time PCR was used to detect the mRNA expression of GPX4 in each group of cells. The results were presented as Mean±SD. Compared with the control group, ***p<0.0001; Compared with the model group, #p<0.05, […].
# [4] = system: vascular inflammation in high-glucose and high-fat zebrafish; assay: Regressive effect on vascular inflammation in high-glucose and high-fat zebrafish (Example 9); assay type: in vivo
# Method: Experimental method: 360 tails of 5 dpf macrophage fluorescent zebrafish were randomly selected and placed in beakers with 30 tails in each beaker, compound (1), compound (3), and compound (5) were given intravenously, and the positive control group was given atorvastatin calcium by dissolving it in water at a concentration of 30 μg/mL, while the normal control group (fish farming water-treated zebrafish) and the model control group were set up, and the volume of each beaker (experimental group) was 25 mL. Except for the normal control group, all other groups were given high-lipids and high-sucrose feed by dissolving it in water. Compound (1), compound (3) and compound (5) group were co-treated with high-lipids and high-sucrose feed for 30 h. The treatment was carried out up to 9 dpf, and 10 zebrafish were randomly selected from each experimental group to collect the intensity of the macrophage fluorescence within the tail vein and around the tail vein of the zebrafish under fluorescence microscope, and the results of the statistical analysis were used to evaluate the regressive effect of compound (1), compound (3), compound (5) on zebrafish vascular inflammation in the high sugar and high fat model.
# [5] = system: Erastin-induced neuronal cells; assay: Cell viability (CCK8) of Erastin-induced neuronal cells (Example 8); assay type: cell-based, rat; conditions: for Cell viability (%): Erastin 50 μM
# Method: as §1, §2
# After incubation, the CCK8 experiment was used to detect the cell viability of each group of cells. The results were presented as Mean±SD. Compared with control group, ***p<0.0001. Compared with model control group, ^#P<0.05, ^##P<0.01.
# tryptase = assay: Sensitization risk: tryptase expression (OD, BAPNA) in zebrafish (Example 2); assay type: in vivo
# Method: Experimental method: 2 dpf wild type AB strain zebrafish were randomly selected and placed in a 24-well plate, with each group 6 parallel wells and 10 zebrafish per well. The zebrafish were injected intravenously with samples at a dose of 500 ng/tail and the positive control “C48/80” at a concentration of 1.5 μg/mL, while normal control group was set up. Each well has a capacity of 1 mL.
# All experimental groups were given BAPNA by dissolving it in the water. After treatment at 28° C. for 1 day, the liquid was transferred to 96-well plates with 200 μL/well, and the relative absorbance values (OD values) of the expression levels of tryptase in each experimental group were detected using an microplate reader, and the results of the statistical analysis of the OD values were used to evaluate the risk of sensitization by sample. Statistical results were expressed as mean±SE.
# Statistical analysis was performed using SPSS software, and p<0.05 indicates significant differences.
# [6] = 1 μM, control = 100, PGSK fluorescence, weaker = more iron
# [7] = 1 μM, control about 1.00, Mean±SD
# [8] = 1 μM, 24 h, control = 100, Mean±SD
SMILES,"Lipid ROS levels (%) ([1]; 1 μM, control = 100, Mean±SD)",Lipid ROS levels (%) ([1]; 2.5 μM),Lipid ROS levels (%) ([1]; 5 μM),Lipid ROS levels (%) ([1]; 10 μM),Lipid ROS levels (%) ([1]; 20 μM),Lipid ROS levels (%) ([1]; 40 μM),"Iron content (PGSK probe) [2, 6]",Iron content (PGSK probe) ([2]; 2.5 μM),Iron content (PGSK probe) ([2]; 5 μM),Iron content (PGSK probe) ([2]; 10 μM),Iron content (PGSK probe) ([2]; 20 μM),Iron content (PGSK probe) ([2]; 40 μM),Preventative effect on thrombosis (%) [3] [%],"Cardiac erythrocyte staining intensity (pixels, mean ± SE) ([3]; n = 10) [pixels]",Expression of GPX4 mRNA (GPX4 mRNA; [7]),Expression of GPX4 mRNA (GPX4 mRNA; 2.5 μM),Expression of GPX4 mRNA (GPX4 mRNA; 5 μM),Expression of GPX4 mRNA (GPX4 mRNA; 10 μM),Expression of GPX4 mRNA (GPX4 mRNA; 20 μM),Expression of GPX4 mRNA (GPX4 mRNA; 40 μM),other results
CC(=O)N[C@H](CSCC1OC2OC3C(CSC[C@@H](NC(C)=O)C(=O)[O-])OC(OC4C(CSC[C@@H](NC(C)=O)C(=O)[O-])OC(OC5C(CSC[C@@H](NC(C)=O)C(=O)[O-])OC(OC6C(CSC[C@@H](NC(C)=O)C(=O)[O-])OC(OC7C(CSC[C@@H](NC(C)=O)C(=O)[O-])OC(OC8C(CSC[C@@H](NC(C)=O)C(=O)[O-])OC(OC1C(O)C2O)C(O)C8O)C(O)C7O)C(O)C6O)C(O)C5O)C(O)C4O)C(O)C3O)C(=O)[O-].[Na+].[Na+].[Na+].[Na+].[Na+].[Na+].[Na+] (stereo partly drawn) [Compound (5)],145.89 ± 5.33,141.47 ± 6.53,133.09 ± 9.69,128.99 ± 9.84^# %,122.71 ± 8.5^## %,114.82 ± 7.13^## %,56.75 ± 9.31^,68.32 ± 6.01^,72.65 ± 7,76.52 ± 7.86^#,80.28 ± 6.96^##,87.37 ± 9.57^##,64,4340 ± 255,0.4777 ± 0.07^,0.5373 ± 0.08^,0.6033 ± 0.06^#,0.6942 ± 0.01^##,0.7693 ± 0.1^##,0.8368 ± 0.07^##,"Cardiac erythrocyte staining intensity (pixels, mean ± SE) ([3]; n = 10, listed as compound (5)): 4340 pixels; Anti-inflammatory effect (%) ([4]; 27.8 ng/tail intravenous): 38*** %; Fluorescence intensity of perivascular macrophage (pixels, Mean ± SE) ([4]; 27.8 ng/tail intravenous): 113678 ± 4811 pixels; Anti-inflammatory effect (%) ([4]; 83.3 ng/tail intravenous): 36*** %; Fluorescence intensity of perivascular macrophage (pixels, Mean ± SE) ([4]; 83.3 ng/tail intravenous): 118039 ± 9198 pixels; Anti-inflammatory effect (%) ([4]; 250 ng/tail intravenous): 37*** %; Fluorescence intensity of perivascular macrophage (pixels, Mean ± SE) ([4]; 250 ng/tail intravenous): 115627 ± 5934 pixels; Cell viability (%) [5, 8]: 58.95 ± 7.21%; Cell viability (%) ([5]; 2.5 μM): 62.63 ± 7.82%; Cell viability (%) ([5]; 5 μM): 67.38 ± 6.73%; Cell viability (%) ([5]; 10 μM): 73.74 ± 7.33^# %; Cell viability (%) ([5]; 20 μM): 79.85 ± 6.34^## %; Cell viability (%) ([5]; 40 μM): 84.2 ± 4.71^## %"
CC(=O)N[C@H](CSCC1OC2OC3C(CSC[C@@H](NC(C)=O)C(=O)[O-])OC(OC4C(CSC[C@@H](NC(C)=O)C(=O)[O-])OC(OC5C(CSC[C@@H](NC(C)=O)C(=O)[O-])OC(OC6C(CSC[C@@H](NC(C)=O)C(=O)[O-])OC(OC7C(CSC[C@@H](NC(C)=O)C(=O)[O-])OC(OC1C(O)C2O)C(O)C7O)C(O)C6O)C(O)C5O)C(O)C4O)C(O)C3O)C(=O)[O-].[Na+].[Na+].[Na+].[Na+].[Na+].[Na+] (stereo partly drawn) [Compound (3)],146.56 ± 7.67,141.34 ± 4.22,136.81 ± 7.9,132.38 ± 2.23%,125.33 ± 9.79^# %,120.37 ± 10.16^## %,56.48 ± 3.32^,62.3 ± 7,67.06 ± 11.62,71.61 ± 9.86^,76.67 ± 7.25^#,83.81 ± 9.91^##,17,3045 ± 219,0.4359 ± 0.05,0.4875 ± 0.01,0.5407 ± 0.06,0.6152 ± 0.07^##,0.6765 ± 0.07^##,0.7421 ± 0.08^##,"Cardiac erythrocyte staining intensity (pixels, mean ± SE) ([3]; n = 10, listed as compound (3)): 3045 pixels; Anti-inflammatory effect (%) ([4]; 11.1 ng/tail intravenous): 38*** %; Fluorescence intensity of perivascular macrophage (pixels, Mean ± SE) ([4]; 11.1 ng/tail intravenous): 113809 ± 7995 pixels; Anti-inflammatory effect (%) ([4]; 33.3 ng/tail intravenous): 36*** %; Fluorescence intensity of perivascular macrophage (pixels, Mean ± SE) ([4]; 33.3 ng/tail intravenous): 118747 ± 6434 pixels; Anti-inflammatory effect (%) ([4]; 100 ng/tail intravenous): 36*** %; Fluorescence intensity of perivascular macrophage (pixels, Mean ± SE) ([4]; 100 ng/tail intravenous): 118504 ± 10539 pixels; Cell viability (%) [5, 8]: 52.87 ± 2.55%; Cell viability (%) ([5]; 2.5 μM): 56.6 ± 4.76%; Cell viability (%) ([5]; 5 μM): 62.52 ± 8.51%; Cell viability (%) ([5]; 10 μM): 66.77 ± 6.27%; Cell viability (%) ([5]; 20 μM): 73.21 ± 8.1^# %; Cell viability (%) ([5]; 40 μM): 77.95 ± 6.34^## %; Concentration above which cell viability was significantly increased compared with the model group ([5]; p<0.05): greater than 10 μM"
OCC1OC2OC3C(CO)OC(OC4C(CO)OC(OC5C(CO)OC(OC6C(CO)OC(OC7C(CO)OC(OC8C(CO)OC(OC9C(CO)OC(OC1C(O)C2O)C(O)C9O)C(O)C8O)C(O)C7O)C(O)C6O)C(O)C5O)C(O)C4O)C(O)C3O (stereo not drawn) [Compound (10)],,,,,,,,,,,,,64,4326 ± 383,,,,,,,"Sensitization risk, in words (tryptase; 500 ng/tail): low sensitization risk; Relative sensitization risk (compared with positive control group) (tryptase; 500 ng/tail intravenous): 33%; Sensitization risk (%) (tryptase; 500 ng/tail intravenous): 27.8%; Absorbance value (OD value), parallel wells 1-6 (tryptase; 500 ng/tail intravenous, 28° C. 1 day, single wells): 0.07115 and 0.06947 and 0.06795 and 0.07585 and 0.06445; Absorbance value (OD value), mean (tryptase; 500 ng/tail intravenous, mean of 6 wells): 0.069; Cardiac erythrocyte staining intensity (pixels, mean ± SE) ([3]; n = 10, listed as compound (10)): 4326 pixels"
